Test results: US9822117B2, “Pyridoindolobenz[b,d]azepine derivatives and uses thereof” (Daya Drug Discoveries, Inc., priority 2013, dated 2017)

Columns and labels:
[1] = system: mechano-allodynia (paw withdrawal threshold); assay: Sciatic nerve chronic constriction injury (CCI) model of neuropathic pain; assay type: in vivo, mice
Experimental: DDD-028 was evaluated in chronic constriction injury (CCI) model of neuropathic pain in mice as described by Bennett et al., which is incorporated herein in its entirety. Two male CDI mice (weighing 25-30 g at the time of surgery) were used in this study. The hydrochloride salt of DDD-028 was dissolved in distilled water at 0.15 mg/mL and was administered to the mice to the final dose of 1.0 mg/kg (3.5 gmol/kg) for oral administration (via gavage) or 0.3 mg/kg (1.2 gmol/kg) for intrathecal administration (injection) at peak mechano-allodynia. Baseline PWT measurements (pre-surgery) of the left-hind paw of each animal were taken prior to sciatic nerve ligation. The mice were then anesthetized with 3% isoflurane/100% O2 inhalation, and maintained on 2% isoflurane/100% O2 for the duration of surgery. The left thigh was shaved, scrubbed with Nolvasan, and a small incision (1-1.5 cm in length) was made in the middle of the lateral aspect of the left thigh to expose the sciatic nerve. The nerve was loosely ligated around the entire circumference of the nerve at three distinct sites (spaced 1 mm apart) using silk sutures. The surgical site was closed with a single muscle suture and a skin clip. Peak mechano-allodynia generally develops 7 […]. After 7 days post-surgery, Paw Withdrawal Threshold (PWT, g) measurements were taken for each animal to determine the extent of mechanical allodynia. PWT's were measured at 15 min, 30 min, 60 min, 120 min, and 180 min following administration of the drugs or vehicle. […] DDD-028 had no effect on PWT in contralateral paws.

[2] = system: mechanical allodynia (percent weight distribution of left hind paw); assay: Complete Freund's Adjuvant (CFA)-induced model of inflammatory pain; assay type: in vivo; details: rats
Experimental: DDD-028 was evaluated in Complete Freund's Adjuvant (CFA)-induced model of inflammatory pain in rats as described by Stein et al., which is incorporated herein in its entirety. Fifteen male CD rats were used in this study. The animals were divided into three groups (vehicle, DDD-028, and indomethacin) containing 5 animals in each group. Baseline weight distribution of each animal in the groups was measured taken prior to CFA administration. Three readings were taken for each paw in each animal. Each reading was take over 3 seconds. Animals were lifted or the paws adjusted between each reading to ensure that animals were positioned correctly on the force pads. The percent weight bearing was calculated on the left leg for each reading. The mean of the three readings were then calculated for each animal. Following baseline measurements, the rats were anesthetized using 1-3% isofluorane, and were given subplantar injection of 0.1 mL of CFA into the left hind paw. Percent weight distributions of the left hind paws of each animal in the three groups were measured at 24 hours post-administration to determine the extent of mechanical allodynia. Animals were then weighed, allocated to the treatment group, and administered the test compound, DDD-028, the reference compound, indomethacin, or the vehicle. Weight distributions were measured at 15 min, 30 min, 60 min, and 120 min following administration of the drugs or vehicle.

Sigma σ2 receptor = Sigma σ2 receptor (Homo sapiens, UniProt Q5BJF2); assay: Receptor binding, σ2
[3] = system: mechanical allodynia (paw withdrawal threshold); assay: Spinal nerve ligation (SNL) model of neuropathic pain; assay type: in vivo, rats
Experimental: DDD-028 was evaluated in spinal nerve ligation (SNL) model of neuropathic pain in rats as described by Kim et al., which is incorporated herein in its entirety. DDD-028 was prepared as a suspension (1.0 mg/mL) in 5% PEG/5% Tween-80/90% saline; and pregabalin (reference compound, positive control) was prepared as a solution in normal saline (7.9 mg/mL). Both compounds were administered to the animals via oral gavage to a final dose of 5.0 mg/kg (17.4 gmol/kg) for DDD-028; and 39.0 mg/kg (250.2 gmol/kg) for pregabalin. Control animals received the vehicle (5% PEG/5% Tween-80/90% saline). Mechanical allodynia was measured by the up and down method using calibrated von Frey filaments (Linton Instruments). Eighteen male CD rats were used in this study. The animals were divided into three groups (vehicle, DDD-028, and pregabalin) containing 6 animals in each group. Baseline PWT measurements (pre-surgery) of the left-hind paw of each animal in the group were taken prior to spinal nerve ligation. Thereafter, the rats were anesthetized using 1-3% isofluorane, and the L5 spinal nerve was isolated and ligated tightly using silk thread. Peak mechano-allodynia generally develops by day 7 following surgery. After 7 days post-surgery, PWT measurements were taken for each animal to determine the extent of mechanical allodynia. Animals were then weighed, allocated to the treatment group, and administered the test compound, DDD-028, the reference compound, pregabalin, or the vehicle. PWT's were measured at 15 min, 30 min, 60 min, 120 min, and 180 min following administration of the drugs or vehicle.

Sequence of Sigma σ2 receptor (Q5BJF2 whole entry): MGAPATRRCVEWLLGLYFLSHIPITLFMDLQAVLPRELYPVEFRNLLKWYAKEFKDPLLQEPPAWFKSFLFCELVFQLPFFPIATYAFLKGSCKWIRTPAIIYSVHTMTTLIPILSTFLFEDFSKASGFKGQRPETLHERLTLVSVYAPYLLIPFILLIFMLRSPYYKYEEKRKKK

Structure (SMILES): CC(C)C[C@H](CN)CC(=O)O [pregabalin, reference compound]
- adverse effects ([1]; as printed in Example 5 (CCI), 1-3 hours post-administration): mild sedation

Structure (SMILES): COc1ccc2c(c1)c(CC(=O)O)c(C)n2C(=O)c1ccc(Cl)cc1 [indomethacin, reference compound]
- adverse effects ([2]; 2 hours post-administration): mild sedation

Structure (SMILES): CN1CCc2c(c3cccc4c3n2CCc2ccccc2-4)C1 [Compound 13]
- Ki (Sigma σ2 receptor): 312 nM
- adverse effects ([3]; rat, in vivo, po, 5 mg/kg): No adverse effects were evident
- time of maximal anti-nociceptive effect ([3]; rats, SNL, 5.0 mg/kg oral): about 60 minutes
- potency relative to pregabalin ([3]; rats, SNL, DDD-028 5.0 mg/kg vs pregabalin […], oral): about 5 fold
- adverse effects ([2]; oral): No adverse effects were evident
- potency relative to indomethacin ([2]; oral): about 5 fold
- time of maximal anti-nociceptive effect ([2]; oral): about 60 minutes
- effect on PWT in contralateral paws ([1]; mice, CCI, 1.0 mg/kg oral or 0.3 mg/kg intrathecal): no effect
- time of maximal effect on mechano-allodynia ([1]; mice, CCI, hydrochloride salt, 1.0 mg/kg oral or 0.3 mg/kg intrathecal): ≤ 30 min
